Measurements from patent publication US20130052214A1, “IDENTIFICATION OF A PEPTIDE(S) THAT INDUCES AUTOIMMUNE ANTERIOR UVEITIS” (BOARD OF TRUSTEES OF THE UNIVERSITY OF ARKANSAS, priority 2011, published 2013).

Test system: Lewis rats
Assay: Induction of experimental autoimmune anterior uveitis (EAAU) by hind footpad immunization with MAA-derived peptides in CFA
Type: in vivo, rat
Conditions: for severity of EAAU, clinical and histopathologic examination: 250 μg peptide in CFA compared with 75 μg bovine MAA in CFA, histology at day 17 and day 20 post-immunization; for induction of EAAU: single-dose hind footpad immunization, emulsified 1:1 in CFA, 250 μg peptide or 75 μg bovine MAA, examined daily day 7 to 30 post-immunization
Experimental: Peptides having the sequence of SEQ ID NO. 1 and SEQ ID NO. 2 were solubilized in sterile phosphate buffered saline (PBS) before use. Lewis rats were immunized separately with 100 μl of stable emulsion containing 250 μg of peptide SEQ ID NO. 1 (n=9 rats) or peptide SEQ ID NO. 2 (n=9 rats) emulsified (1:1) in complete Freund's adjuvant (CFA) using a single-dose induction protocol in the hind footpad to induce EAAU. Control animals (n=9 rats) received 75 μg of bovine melanin associated antigen (MAA) emulsified (1:1) in CFA. Animals in each group were examined daily between day 7 and 30, post-immunization, to determine the time of onset and progression of clinical disease in EAAU. Two animals from each group were sacrificed at day 17 and day 20 post-immunization and eyes were harvested for histological analysis to determine the severity of disease and degree of inflammation. Lewis rats injected with MAA peptide SEQ ID NO. 1 or MAA peptide SEQ ID NO. […] 1 (FIGS. 1A and 1D) and peptide SEQ ID NO. […] As shown in all of the Figs., the iris (I) and the ciliary body (CB) were infiltrated with inflammatory cells.

| Sequence | severity of EAAU, clinical and histopathologic examination | induction of EAAU |
| --- | --- | --- |
| GEPGNIGFPGPKGPSGDPGKAGEKG (listed as Bos taurus) [SEQ ID NO. 1, truncated peptide derived from Melanin Associated Antigen (MAA)] | less severe than that induced by bovine MAA | developed EAAU |
| HAGLAGARGAPGPDGNNGAQGPPGL (listed as Bos taurus) [SEQ ID NO. 2, truncated peptide derived from Melanin Associated Antigen (MAA)] | less severe than that induced by bovine MAA | developed EAAU |
